Laboratory results: patent publication US11028064B2, “Tricyclic heterocyclic derivatives and uses thereof” (AUCKLAND UNISERVICES LIMITED, priority 2016, dated 2021)
Where a name gives a salt, the structure may show the parent alone. Read-outs that look alike come from different tables or passages of the source.

What was measured:
KDR (VEGFR2) = KDR (VEGFR2) (Homo sapiens (Human), UniProt P35968); test: SelectScreen Z'-LYTE kinase assay, Assay 540 for KDR (VEGFR2); assay type: biochemical; details: Z'-LYTE activity assay, 75 μM ATP (Km app); read-out: VEGFR2 Enzyme IC50
Chain of KDR (VEGFR2) (P35968 20-1356): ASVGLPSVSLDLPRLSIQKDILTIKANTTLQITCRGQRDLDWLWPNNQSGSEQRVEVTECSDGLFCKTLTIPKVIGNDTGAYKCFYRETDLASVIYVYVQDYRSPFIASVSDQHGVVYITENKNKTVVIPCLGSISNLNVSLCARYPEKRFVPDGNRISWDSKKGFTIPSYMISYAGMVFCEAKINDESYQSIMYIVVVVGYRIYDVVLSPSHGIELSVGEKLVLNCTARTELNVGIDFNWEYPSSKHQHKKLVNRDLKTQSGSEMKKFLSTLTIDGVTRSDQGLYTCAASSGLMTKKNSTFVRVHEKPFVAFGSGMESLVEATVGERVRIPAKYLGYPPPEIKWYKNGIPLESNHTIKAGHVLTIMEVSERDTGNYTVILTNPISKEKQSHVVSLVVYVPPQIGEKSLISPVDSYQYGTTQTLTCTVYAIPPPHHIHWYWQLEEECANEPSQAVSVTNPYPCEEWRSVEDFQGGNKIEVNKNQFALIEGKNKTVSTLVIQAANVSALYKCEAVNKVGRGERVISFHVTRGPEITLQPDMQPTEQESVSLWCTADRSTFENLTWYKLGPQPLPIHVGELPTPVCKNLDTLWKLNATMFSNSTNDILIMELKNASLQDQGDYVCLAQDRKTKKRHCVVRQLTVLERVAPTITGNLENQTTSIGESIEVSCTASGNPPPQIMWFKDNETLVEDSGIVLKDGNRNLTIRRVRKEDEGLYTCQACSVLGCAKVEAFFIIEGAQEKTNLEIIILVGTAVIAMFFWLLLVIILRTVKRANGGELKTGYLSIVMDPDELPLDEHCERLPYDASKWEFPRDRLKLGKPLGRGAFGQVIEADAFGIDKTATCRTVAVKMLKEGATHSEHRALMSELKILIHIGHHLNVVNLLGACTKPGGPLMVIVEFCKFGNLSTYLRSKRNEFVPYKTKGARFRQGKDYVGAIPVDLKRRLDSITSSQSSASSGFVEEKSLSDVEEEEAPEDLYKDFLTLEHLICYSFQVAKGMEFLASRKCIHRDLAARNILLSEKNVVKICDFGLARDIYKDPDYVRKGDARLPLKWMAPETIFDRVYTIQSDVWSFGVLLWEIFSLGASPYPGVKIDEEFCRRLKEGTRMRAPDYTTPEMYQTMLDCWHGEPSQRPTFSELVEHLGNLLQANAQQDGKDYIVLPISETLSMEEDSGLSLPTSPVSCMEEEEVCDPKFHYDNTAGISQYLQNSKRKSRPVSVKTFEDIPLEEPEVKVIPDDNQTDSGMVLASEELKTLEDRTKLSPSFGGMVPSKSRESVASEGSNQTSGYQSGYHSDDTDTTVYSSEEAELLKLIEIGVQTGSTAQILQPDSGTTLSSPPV

CSF-1R (FMS) [1] = target: T1, CSF-1R (FMS) (Homo sapiens (Human), UniProt P07333); test: SelectScreen Z'-LYTE kinase assay, Assay 336 for CSF-1R (FMS); assay type: biochemical; details: Z'-LYTE activity assay, 500 μM ATP (Km app); read-out: CSF-1R Enzyme IC50
T1 sequence (P07333 20-972): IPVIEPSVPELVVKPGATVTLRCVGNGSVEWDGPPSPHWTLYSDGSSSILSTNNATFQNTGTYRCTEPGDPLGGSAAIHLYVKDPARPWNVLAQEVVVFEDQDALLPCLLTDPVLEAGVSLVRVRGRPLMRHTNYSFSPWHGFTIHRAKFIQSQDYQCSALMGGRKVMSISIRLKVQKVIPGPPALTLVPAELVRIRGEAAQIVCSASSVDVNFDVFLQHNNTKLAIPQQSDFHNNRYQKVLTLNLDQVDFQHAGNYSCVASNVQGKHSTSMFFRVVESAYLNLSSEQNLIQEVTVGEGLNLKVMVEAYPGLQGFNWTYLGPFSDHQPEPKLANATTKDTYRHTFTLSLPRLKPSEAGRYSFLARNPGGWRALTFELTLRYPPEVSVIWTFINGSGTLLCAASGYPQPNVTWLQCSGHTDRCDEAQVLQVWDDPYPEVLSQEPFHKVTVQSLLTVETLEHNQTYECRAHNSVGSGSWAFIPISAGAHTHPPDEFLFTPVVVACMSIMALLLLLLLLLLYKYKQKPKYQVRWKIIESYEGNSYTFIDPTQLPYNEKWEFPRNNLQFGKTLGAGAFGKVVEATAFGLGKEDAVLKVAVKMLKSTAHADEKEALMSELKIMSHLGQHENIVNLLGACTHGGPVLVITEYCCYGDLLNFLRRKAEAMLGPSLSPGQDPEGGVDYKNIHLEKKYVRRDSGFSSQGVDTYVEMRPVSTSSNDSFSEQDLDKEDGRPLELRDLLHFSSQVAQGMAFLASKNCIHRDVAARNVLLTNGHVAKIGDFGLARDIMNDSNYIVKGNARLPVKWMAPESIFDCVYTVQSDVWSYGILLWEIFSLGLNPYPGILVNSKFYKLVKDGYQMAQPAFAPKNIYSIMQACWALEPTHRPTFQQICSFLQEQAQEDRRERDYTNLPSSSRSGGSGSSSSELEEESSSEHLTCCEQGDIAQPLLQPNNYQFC

[2] = system: CD11b and CD24 positive cells; test: In vivo efficacy study: flow cytometry of blood leukocytes from mice bearing NZM12 human melanoma xenografts; design: species or system NIH-III female mice; details: dosed daily for 14 days
CSF-1R (FMS) [3] = target: T1, CSF-1R (FMS); details: representative value, substrate Tyr 01, ATP Bin 500 μM; read-out: IC50 (nM) of known inhibitor, CSF-1R (FMS); cited from earlier work

SMILES	IC50 (KDR (VEGFR2)) [µM]	IC50 (CSF-1R (FMS) [1]) [µM]	also measured
COc1ccc(Cc2ccc3c(=O)c4cc(C)cc(OCCN(C)C)c4oc3c2)cn1 [Example 19, 4-(2-(Dimethylamino)ethoxy)-6-((6-methoxypyridin-3-yl)methyl)-2-methyl-9H-xanthen-9-one]	> 10	0.1 to 1	
Cc1cc(OCCN(C)C)c2oc3cc(Oc4ccc(N)nc4)ccc3c(=O)c2c1 [Example 17, 6-((6-Aminopyridin-3-yl)oxy)-4-(2-(dimethylamino)ethoxy)-2-methyl-9H-xanthen-9-one]	> 10	0.1 to 1	
FC(F)(F)c1ccc(CNc2ccc(Cc3c[nH]c4ncc(Cl)cc34)cn2)cn1 [PLX3397, Pexidartinib, reference compound]			number of cells of myeloid lineage in the treated mice [2]: reduce the number of cells of myeloid lineage
COc1ccc(Oc2ccc3c(=O)c4cc(C)cc(OCCN(C)C)c4oc3c2)cn1 [Example 8, 4-(2-(Dimethylamino)ethoxy)-6-((6-methoxypyridin-3-yl)oxy)-2-methyl-9H-xanthen-9-one]	> 10	0.1 to 1	
Cc1cc(OCCN(C)C)c2oc3cc(Oc4ccc(NCc5ccc(OC(F)(F)F)cc5)nc4)ccc3c(=O)c2c1 [Example 15, 4-(2-(Dimethylamino)ethoxy)-2-methyl-6-((6-((4-(trifluoromethoxy)benzyl)amino)-pyridin-3-yl)oxy)-9H-xanthen-9-one]	> 10	< 0.1	
COc1cc(Oc2ccc3c(=O)c4cc(C)cc(OCCN(C)C)c4oc3c2)cnc1OC [Example 9, 6-((5,6-Dimethoxypyridin-3-yl)oxy)-4-(2-(dimethylamino)ethoxy)-2-methyl-9H-xanthen-9-one]	> 10	< 0.1	
CN(C)CCOc1cccc2c(=O)c3ccc(Oc4cccc(C(=O)Nc5ccccc5)c4)cc3oc12 [Example 2, 3-({5-[2-(Dimethylamino)ethoxy]-9-oxo-9H-xanthen-3-yl}oxy)-N-phenylbenzamide]	1 to 10	< 0.1	
Cc1cc(OCCC2CCN(C)CC2)c2oc3cc(Oc4ccccc4)ccc3c(=O)c2c1 [Example 36, 2-Methyl-4-(2-(1-methylpiperidin-4-yl)ethoxy)-6-phenoxy-9H-xanthen-9-one]	1 to 10	0.1 to 1	
Cc1cc(OCCN(C)C)c2oc3cc(Oc4ccc(NCC(=O)NC5CCCC5)nc4)ccc3c(=O)c2c1 [Example 25, N-Cyclopentyl-2-((5-((5-(2-(dimethylamino)ethoxy)-7-methyl-9-oxo-9H-xanthen-3-yl)oxy)pyridin-2-yl)amino)acetamide]	> 10	< 0.1	
Cc1cc(OCCCN(C)C)c2oc3cc(Oc4ccccc4)ccc3c(=O)c2c1 [Example 30, 4-[3-(Dimethylamino)propoxy]-2-methyl-6-phenoxy-9H-xanthen-9-one]	1 to 10	0.1 to 1	
CNCCOc1cc(C)cc2c(=O)c3ccc(Oc4ccc(CCC(=O)NC5CCCC5)nc4)cc3oc12 [Example 29, N-Cyclopentyl-3-(5-((7-methyl-5-(2-(methylamino)ethoxy)-9-oxo-9H-xanthen-3-yl)oxy)pyridin-2-yl)propanamide]	> 10	< 0.1	
Cc1cc(OCCCN2CCN(C(C)C)CC2)c2oc3cc(Oc4ccc(CCC(=O)NC5CCCC5)nc4)ccc3c(=O)c2c1 [Example 66, N-Cyclopentyl-3-(5-((5-(3-(4-isopropylpiperazin-1-yl)propoxy)-7-methyl-9-oxo-9H-xanthen-3-yl)oxy)pyridin-2-yl)propanamide]	1 to 10	< 0.1	
Cc1cc(OCCN(C)C)c2oc3cc(Oc4cccnc4)ccc3c(=O)c2c1 [Example 53, 4-(2-(Dimethylamino)ethoxy)-2-methyl-6-(pyridin-3-yloxy)-9H-xanthen-9-one]	> 10	0.1 to 1	
Cc1cc(OCCN2CCN(CC(F)(F)F)CC2)c2oc3cc(Oc4ccc(CCC(=O)NC5CCCC5)nc4)ccc3c(=O)c2c1 [Example 59, N-Cyclopentyl-3-(5-((7-methyl-9-oxo-5-(2-(4-(2,2,2-trifluoroethyl)piperazin-1-yl)ethoxy)-9H-xanthen-3-yl)oxy)pyridin-2-yl)propanamide]	> 10	< 0.1	
Cc1cc(OCCN(C)C)c2oc3cc(Sc4ccc(CCC(=O)NC5CCCC5)nc4)ccc3c(=O)c2c1 [Example 43, N-Cyclopentyl-3-(5-((5-(2-(dimethylamino)ethoxy)-7-methyl-9-oxo-9H-xanthen-3-yl)thio)pyridin-2-yl)propanamide]	1 to 10	< 0.1	
Cc1cc(OCCN2C[C@@H](C)N(C)[C@@H](C)C2)c2oc3cc(Oc4ccc(CCC(=O)NC5CCCC5)nc4)ccc3c(=O)c2c1 [Example 62, N-Cyclopentyl-3-(5-((7-methyl-9-oxo-5-(2-((3S,5R)-3,4,5-trimethylpiperazin-1-yl)ethoxy)-9H-xanthen-3-yl)oxy)pyridin-2-yl)propanamide]	> 10	< 0.1	
COc1cc2ncnc(Nc3cccc(Cl)c3)c2cc1OC [Tyrphostin AG1478]			IC50 (CSF-1R (FMS) [3]): 6480 nM
Cc1cc(OCCN(C)C)c2oc3cc(Oc4ccc(CCC(=O)NC5CCCC5)nc4)ccc3c(=O)c2c1 [dimethanesulfonate salt of compound 22, N-cyclopentyl-3-(5-((5-(2-(dimethylamino)ethoxy)-7-methyl-9-oxo-9H-xanthen-3-yl)-oxy)pyridin-2-yl)propanamide]			number of cells of myeloid lineage in the treated mice [2]: reduce the number of cells of myeloid lineage; levels of CD11b positive cells ([2]; blood leukocytes, versus PLX3397 and control (FIG. 1)): reduced the levels of CD11b and CD24 positive cells to a similar or greater extent compared with treatment with PLX3397; levels of CD24 positive cells ([2]; blood leukocytes, versus PLX3397 and control (FIG. 2)): reduced the levels of CD11b and CD24 positive cells to a similar or greater extent compared with treatment with PLX3397
Cc1cc(OCCN(C)C)cc2c(=O)c3ccc(Oc4ccc(CCC(=O)NC5CCCC5)nc4)cc3oc12 [Example 45, N-Cyclopentyl-3-(5-((7-(2-(dimethylamino)ethoxy)-5-methyl-9-oxo-9H-xanthen-3-yl)oxy)pyridin-2-yl)propanamide]	1 to 10	< 0.1	
Cc1cc(OCCCCN(C)C)c2oc3cc(Oc4ccccc4)ccc3c(=O)c2c1 [Example 34, 4-(4-(Dimethylamino)butoxy)-2-methyl-6-phenoxy-9H-xanthen-9-one]	1 to 10	0.1 to 1	
